Test results from US20240109836A1, “NON-HALL[…] ANALOGS FOR TREATMENT OF NEUROLOGICAL AND PSYCHIATRIC DISORDERS” (The Trustees of Columbia University in the City of New York, priority 2021, published 2024).

Assays:
Muscarinic M3 = target: T1, Muscarinic M3 (Homo sapiens, UniProt P20309); assay: SafetyScreen44 (Panlabs) panel; type: binding; settings: 10 μM
T1 construct: Panlabs (SafetyScreen44 panel)
Method: (§1) Other targets included with less than ≥50% stimulation at a concentration of 10 μM: Acetylcholinesterase, COX-1, COX-2, MAO-A, PDE3A, PDE4D2, Protein Tyrosine Kinase (LCK), Adenosine A2A, Adrenergic α1A, Adrenergic α2A, Adrenergic β1, Adrenergic β2, Androgen (Testosterone), Calcium Channel L-Type (Dihydropyridine), CB1, CB2, Cholecystokinin CCK1 (CCKA), Dopamine D1, Dopamine D2S, Endothelin ETA, GABAA (Flunitrazepam, Central), Glucocorticoid, Glutamate-NMDA (Agonism), Histamine H1, Histamine H2, Muscarinic M1, Muscarinic M2, Muscarinic M3, Nicotinic Acetylcholine α4β2, (Cytisine), DOP, KOP, MOP, Potassium Channel [KA], Potassium Channel hERG, Serotonin (5-Hydroxytryptamine) 5-HT1A, 5-HT1B, 5-HT3, Na-channel site 2, DAT, NET, SERT, Vasopressin V1A

[1] = target: T2, Cholecystokinin CCK1 (CCKA) (Homo sapiens, UniProt P32238); assay: SafetyScreen44 (Panlabs) panel; type: binding; settings: 10 μM
T2 construct: Panlabs (SafetyScreen44 panel)
T2 sequence (P32238 whole entry): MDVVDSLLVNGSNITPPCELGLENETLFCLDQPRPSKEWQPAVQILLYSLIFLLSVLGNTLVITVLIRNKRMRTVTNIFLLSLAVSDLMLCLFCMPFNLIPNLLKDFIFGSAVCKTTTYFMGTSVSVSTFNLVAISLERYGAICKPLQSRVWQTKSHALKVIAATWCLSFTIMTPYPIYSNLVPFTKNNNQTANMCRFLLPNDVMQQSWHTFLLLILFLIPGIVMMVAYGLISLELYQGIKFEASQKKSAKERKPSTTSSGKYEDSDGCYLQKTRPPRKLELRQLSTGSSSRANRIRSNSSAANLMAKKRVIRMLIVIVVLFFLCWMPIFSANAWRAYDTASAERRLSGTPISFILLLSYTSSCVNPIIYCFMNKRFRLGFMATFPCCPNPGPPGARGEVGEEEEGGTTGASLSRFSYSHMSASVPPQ
Method: as §1

[2] = target: T3, Serotonin (5-Hydroxytryptamine) 5-HT1A (Homo sapiens, UniProt P08908); assay: SafetyScreen44 (Panlabs) panel; type: binding; settings: 10 μM
T3 construct: Panlabs (SafetyScreen44 panel)
Method: as §1

[3] = tested on: Calcium Channel L-Type (Dihydropyridine); assay: SafetyScreen44 (Panlabs) panel; type: binding; settings: 10 μM
Method: as §1

KOP = target: T4, KOP (Homo sapiens, UniProt P41145); assay: SafetyScreen44 (Panlabs) panel; type: binding; settings: 10 μM
T4 construct: Panlabs (SafetyScreen44 panel)
Method: as §1

Vasopressin V1A = target: T5, Vasopressin V1A (Homo sapiens, UniProt P37288); assay: SafetyScreen44 (Panlabs) panel; type: binding; settings: 10 μM
T5 construct: Panlabs (SafetyScreen44 panel)
Method: as §1

Histamine H2 = target: T6, Histamine H2 (Homo sapiens, UniProt P25021); assay: SafetyScreen44 (Panlabs) panel; type: binding; settings: 10 μM
T6 construct: Panlabs (SafetyScreen44 panel)
Method: as §1

Endothelin ETA = target: T7, Endothelin ETA (Homo sapiens, UniProt P25101); assay: SafetyScreen44 (Panlabs) panel; type: binding; settings: 10 μM
T7 construct: Panlabs (SafetyScreen44 panel)
Method: as §1

Dopamine D1 = target: T8, Dopamine D1 (Homo sapiens, UniProt P21728); assay: SafetyScreen44 (Panlabs) panel; type: binding; settings: 10 μM
T8 construct: Panlabs (SafetyScreen44 panel)
Method: as §1

[4] = target: T9, Nicotinic Acetylcholine α4β2, (Cytisine) (Homo sapiens, UniProt P17787+P43681); assay: SafetyScreen44 (Panlabs) panel; type: binding; settings: 10 μM
T9 construct: Panlabs (SafetyScreen44 panel)
Method: as §1

5-HT3 = target: T10, 5-HT3 (Homo sapiens, UniProt P46098); assay: SafetyScreen44 (Panlabs) panel; type: binding; settings: 10 μM
T10 construct: Panlabs (SafetyScreen44 panel)
Method: as §1

MOP = target: T11, MOP (Homo sapiens, UniProt P35372); assay: SafetyScreen44 (Panlabs) panel; type: binding; settings: 10 μM
T11 construct: Panlabs (SafetyScreen44 panel)
T11 sequence (P35372 whole entry): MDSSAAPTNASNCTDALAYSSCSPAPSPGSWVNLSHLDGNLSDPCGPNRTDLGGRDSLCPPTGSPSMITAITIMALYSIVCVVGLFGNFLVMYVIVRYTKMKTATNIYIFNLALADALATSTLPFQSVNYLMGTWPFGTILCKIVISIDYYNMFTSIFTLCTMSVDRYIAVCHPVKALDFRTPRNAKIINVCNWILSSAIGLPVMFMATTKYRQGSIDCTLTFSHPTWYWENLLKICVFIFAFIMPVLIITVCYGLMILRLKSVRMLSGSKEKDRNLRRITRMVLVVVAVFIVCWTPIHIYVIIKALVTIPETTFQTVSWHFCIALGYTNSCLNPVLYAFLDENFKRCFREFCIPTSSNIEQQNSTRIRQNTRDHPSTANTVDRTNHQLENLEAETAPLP
Method: as §1

CB2 = target: T12, CB2 (Homo sapiens, UniProt P34972); assay: SafetyScreen44 (Panlabs) panel; type: binding; settings: 10 μM
T12 construct: Panlabs (SafetyScreen44 panel)
Method: as §1

Adrenergic β1 = target: T13, Adrenergic β1 (Homo sapiens, UniProt P08588); assay: SafetyScreen44 (Panlabs) panel; type: binding; settings: 10 μM
T13 construct: Panlabs (SafetyScreen44 panel)
Method: as §1

[5] = tested on: GABAA (Flunitrazepam, Central); assay: SafetyScreen44 (Panlabs) panel; type: binding; settings: 10 μM
Method: as §1

SERT = target: T14, SERT (Homo sapiens, UniProt P31645); assay: SafetyScreen44 (Panlabs) panel; type: binding; settings: 10 μM
T14 construct: Panlabs (SafetyScreen44 panel)
Method: as §1

Potassium Channel [KA] = assay: SafetyScreen44 (Panlabs) panel; type: binding; settings: 10 μM
Method: as §1

Adrenergic α1A = target: T15, Adrenergic α1A (Rattus norvegicus, UniProt P43140); assay: SafetyScreen44 (Panlabs) panel; type: binding; settings: 10 μM
T15 construct: Panlabs (SafetyScreen44 panel)
Method: as §1

Adrenergic α2A = target: T16, Adrenergic α2A (Homo sapiens, UniProt P08913); assay: SafetyScreen44 (Panlabs) panel; type: binding; settings: 10 μM
T16 construct: Panlabs (SafetyScreen44 panel)
T16 sequence (P08913 whole entry): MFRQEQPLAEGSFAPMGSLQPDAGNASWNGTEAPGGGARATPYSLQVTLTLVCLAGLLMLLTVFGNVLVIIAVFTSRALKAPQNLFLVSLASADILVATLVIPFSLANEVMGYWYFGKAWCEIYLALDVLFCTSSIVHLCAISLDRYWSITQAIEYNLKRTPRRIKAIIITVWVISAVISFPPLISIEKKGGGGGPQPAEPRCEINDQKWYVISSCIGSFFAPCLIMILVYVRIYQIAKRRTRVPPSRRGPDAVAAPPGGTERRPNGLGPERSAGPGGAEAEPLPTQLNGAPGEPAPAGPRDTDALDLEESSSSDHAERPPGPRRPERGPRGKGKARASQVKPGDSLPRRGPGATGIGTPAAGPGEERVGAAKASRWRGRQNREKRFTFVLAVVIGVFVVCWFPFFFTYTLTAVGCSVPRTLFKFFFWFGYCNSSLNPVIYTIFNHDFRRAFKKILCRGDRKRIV
Method: as §1

Adrenergic β2 = target: T17, Adrenergic β2 (Homo sapiens, UniProt P07550); assay: SafetyScreen44 (Panlabs) panel; type: binding; settings: 10 μM
T17 construct: Panlabs (SafetyScreen44 panel)
T17 sequence (P07550 whole entry): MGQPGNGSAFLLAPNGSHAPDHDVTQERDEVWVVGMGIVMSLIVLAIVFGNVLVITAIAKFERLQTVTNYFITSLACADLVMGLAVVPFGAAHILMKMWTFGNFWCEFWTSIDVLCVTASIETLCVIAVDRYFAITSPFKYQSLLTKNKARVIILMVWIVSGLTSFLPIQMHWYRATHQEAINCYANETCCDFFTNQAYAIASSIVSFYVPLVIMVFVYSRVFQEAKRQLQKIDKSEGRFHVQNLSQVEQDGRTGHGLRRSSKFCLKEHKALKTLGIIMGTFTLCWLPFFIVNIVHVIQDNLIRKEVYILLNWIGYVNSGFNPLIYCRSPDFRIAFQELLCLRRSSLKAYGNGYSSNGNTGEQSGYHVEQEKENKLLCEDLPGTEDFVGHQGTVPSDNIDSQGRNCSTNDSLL
Method: as §1

DAT = target: T18, DAT (Homo sapiens, UniProt Q01959); assay: SafetyScreen44 (Panlabs) panel; type: binding; settings: 10 μM
T18 construct: Panlabs (SafetyScreen44 panel)
Method: as §1

Androgen (Testosterone) = assay: SafetyScreen44 (Panlabs) panel; type: binding; settings: 10 μM
Method: as §1

5-HT1B = assay: SafetyScreen44 (Panlabs) panel; type: binding; settings: 10 μM
Method: as §1

Glucocorticoid = target: T19, Glucocorticoid (Homo sapiens, UniProt P04150); assay: SafetyScreen44 (Panlabs) panel; type: binding; settings: 10 μM
T19 construct: Panlabs (SafetyScreen44 panel)
T19 sequence (P04150 whole entry): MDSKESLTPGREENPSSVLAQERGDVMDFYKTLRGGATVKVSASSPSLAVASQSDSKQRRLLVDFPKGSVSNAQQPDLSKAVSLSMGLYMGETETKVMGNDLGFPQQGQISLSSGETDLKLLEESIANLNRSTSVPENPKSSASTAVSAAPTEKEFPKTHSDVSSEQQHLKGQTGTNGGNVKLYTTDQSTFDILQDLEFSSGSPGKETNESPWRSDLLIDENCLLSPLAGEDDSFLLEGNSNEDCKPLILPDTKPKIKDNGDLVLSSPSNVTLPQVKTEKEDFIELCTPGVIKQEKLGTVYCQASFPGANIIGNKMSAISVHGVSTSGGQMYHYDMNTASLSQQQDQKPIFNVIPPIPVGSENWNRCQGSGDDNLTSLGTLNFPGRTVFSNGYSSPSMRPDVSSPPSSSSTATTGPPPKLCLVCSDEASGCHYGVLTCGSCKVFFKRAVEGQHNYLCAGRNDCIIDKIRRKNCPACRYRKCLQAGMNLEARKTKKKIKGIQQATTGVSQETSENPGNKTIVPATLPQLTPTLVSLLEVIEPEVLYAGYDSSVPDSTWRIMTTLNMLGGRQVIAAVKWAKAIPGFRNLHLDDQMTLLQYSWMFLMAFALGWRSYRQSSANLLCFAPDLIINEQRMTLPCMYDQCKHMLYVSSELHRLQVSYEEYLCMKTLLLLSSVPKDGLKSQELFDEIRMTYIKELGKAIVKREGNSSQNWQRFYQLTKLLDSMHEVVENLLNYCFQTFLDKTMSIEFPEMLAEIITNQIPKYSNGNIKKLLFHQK
Method: as §1

Histamine H1 = target: T20, Histamine H1 (Homo sapiens, UniProt P35367); assay: SafetyScreen44 (Panlabs) panel; type: binding; settings: 10 μM
T20 construct: Panlabs (SafetyScreen44 panel)
Method: as §1

Glutamate-NMDA (Agonism) = assay: SafetyScreen44 (Panlabs) panel; type: binding; settings: 10 μM
Method: as §1

Potassium Channel hERG = target: T21, Potassium Channel hERG (Homo sapiens, UniProt Q12809); assay: SafetyScreen44 (Panlabs) panel; type: binding; settings: 10 μM
T21 construct: Panlabs (SafetyScreen44 panel)
Method: as §1

Muscarinic M1 = target: T22, Muscarinic M1 (Homo sapiens, UniProt P11229); assay: SafetyScreen44 (Panlabs) panel; type: binding; settings: 10 μM
T22 construct: Panlabs (SafetyScreen44 panel)
Method: as §1

Na-channel site 2 = assay: SafetyScreen44 (Panlabs) panel; type: binding; settings: 10 μM
Method: as §1

Dopamine D2S = target: T23, Dopamine D2S (Homo sapiens, UniProt P14416); assay: SafetyScreen44 (Panlabs) panel; type: binding; settings: 10 μM
T23 construct: Panlabs (SafetyScreen44 panel)
Method: as §1

Adenosine A2A = target: T24, Adenosine A2A (Homo sapiens, UniProt P29274); assay: SafetyScreen44 (Panlabs) panel; type: binding; settings: 10 μM
T24 construct: Panlabs (SafetyScreen44 panel)
T24 sequence (P29274 whole entry): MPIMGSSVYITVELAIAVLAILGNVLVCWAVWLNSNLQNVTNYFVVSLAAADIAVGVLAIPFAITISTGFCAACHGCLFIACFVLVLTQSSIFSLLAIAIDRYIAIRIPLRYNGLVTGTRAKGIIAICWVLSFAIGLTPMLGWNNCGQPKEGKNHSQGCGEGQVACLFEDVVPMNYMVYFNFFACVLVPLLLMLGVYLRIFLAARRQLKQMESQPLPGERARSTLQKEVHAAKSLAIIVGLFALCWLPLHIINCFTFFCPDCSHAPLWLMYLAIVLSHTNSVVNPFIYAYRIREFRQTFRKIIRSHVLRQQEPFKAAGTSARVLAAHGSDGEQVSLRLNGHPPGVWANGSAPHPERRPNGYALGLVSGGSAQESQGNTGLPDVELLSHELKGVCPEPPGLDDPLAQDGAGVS
Method: as §1

NET = target: T25, NET (Homo sapiens, UniProt P23975); assay: SafetyScreen44 (Panlabs) panel; type: binding; settings: 10 μM
T25 construct: Panlabs (SafetyScreen44 panel)
Method: as §1

Muscarinic M2 = target: T26, Muscarinic M2 (Homo sapiens, UniProt P08172); assay: SafetyScreen44 (Panlabs) panel; type: binding; settings: 10 μM
T26 construct: Panlabs (SafetyScreen44 panel)
Method: as §1

DOP = target: T27, DOP (Homo sapiens, UniProt P41143); assay: SafetyScreen44 (Panlabs) panel; type: binding; settings: 10 μM
T27 construct: Panlabs (SafetyScreen44 panel)
Method: as §1

CB1 = target: T28, CB1 (Homo sapiens, UniProt P21554); assay: SafetyScreen44 (Panlabs) panel; type: binding; settings: 10 μM
T28 construct: Panlabs (SafetyScreen44 panel)
Method: as §1

5-HT2A = 5-HT2A (Homo sapiens, UniProt P28223); assay: IP1 agonist functional assay; type: cell-based; settings: 5HT2A versus 5HT2B, relative agonism potencies
5-HT2A, sequence (P28223 whole entry): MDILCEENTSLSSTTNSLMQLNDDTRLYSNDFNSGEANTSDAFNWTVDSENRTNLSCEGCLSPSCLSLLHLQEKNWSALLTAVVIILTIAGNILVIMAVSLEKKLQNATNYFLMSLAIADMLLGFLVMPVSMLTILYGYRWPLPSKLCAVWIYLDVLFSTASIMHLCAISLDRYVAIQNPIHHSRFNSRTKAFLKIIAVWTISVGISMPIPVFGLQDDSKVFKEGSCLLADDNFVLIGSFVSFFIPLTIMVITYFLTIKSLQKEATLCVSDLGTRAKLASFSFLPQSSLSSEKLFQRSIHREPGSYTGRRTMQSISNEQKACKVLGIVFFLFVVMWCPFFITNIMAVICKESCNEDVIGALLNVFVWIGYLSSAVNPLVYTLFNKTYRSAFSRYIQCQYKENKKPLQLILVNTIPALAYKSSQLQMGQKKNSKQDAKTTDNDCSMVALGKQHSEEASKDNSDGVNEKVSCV

Forced swim test = type: in vivo, Mice (C57bl/6J); settings: mice, 10 mg/kg s.c., 15 minutes post injection
Method: FIG. 1. […] N=5 mice (saline), N=10 (imipramine as a positive control), N=9 mice (Ariadne cohort). Y-axis show the immobility time per each testing session. Drugs were administered subcutaneously (s.c.).
Mice (C57bl/6J, 8-15 weeks, 29-35 g) were weighed and moved to the testing room 30 minutes prior to experimentation. Mice were administered 0.85% saline (s.c., 5 mice), imipramine 15 mg/kg (i.p., 10 mice), or Ariadne (32) 10 mg/kg (s.c., 9 mice). 15 minutes post injection the mice were moved to a forced swim cylinder with water kept at 23.8-25.0 degrees celsius. Mice were allowed to swim for 6 minutes after which they were removed, dried, and returned to their home cage. The last four minutes of the forced swim video footage was analyzed with Noldus FST scoring software. The mouse's view of the FST cylinder was obstructed prior to starting the forced swim test.

[6] = target: T29, Serotonin (5-Hydroxytryptamine) 5-HT2A (Homo sapiens, UniProt P28223); assay: SafetyScreen44 (Panlabs) panel, replacement of standard ligand; type: binding; settings: hum
T29 construct: Panlabs (SafetyScreen44 panel)
T29 sequence (P28223 whole entry): as above

[7] = at therapeutically effective doses in animals and humans; cited from earlier work
[8] = target: T30, Protein Tyrosine Kinase (LCK) (Homo sapiens, UniProt P06239); assay: SafetyScreen44 (Panlabs) panel; type: biochemical; settings: 10 μM
T30 construct: Panlabs (SafetyScreen44 panel)
Method: as §1

Acetylcholinesterase = target: T31, Acetylcholinesterase (Homo sapiens, UniProt P22303); assay: SafetyScreen44 (Panlabs) panel; type: biochemical; settings: 10 μM
T31 construct: Panlabs (SafetyScreen44 panel)
Method: as §1

PDE4D2 = target: T32, PDE4D2 (Homo sapiens, UniProt Q08499); assay: SafetyScreen44 (Panlabs) panel; type: biochemical; settings: 10 μM
T32 construct: Panlabs (SafetyScreen44 panel)
Method: as §1

MAO-A = target: T33, MAO-A (Homo sapiens, UniProt P21397); assay: SafetyScreen44 (Panlabs) panel; type: biochemical; settings: 10 μM
T33 construct: Panlabs (SafetyScreen44 panel)
Method: as §1

PDE3A = target: T34, PDE3A (Homo sapiens, UniProt Q14432); assay: SafetyScreen44 (Panlabs) panel; type: biochemical; settings: 10 μM
T34 construct: Panlabs (SafetyScreen44 panel)
Method: as §1

COX-1 = target: T35, COX-1 (Homo sapiens, UniProt P23219); assay: SafetyScreen44 (Panlabs) panel; type: biochemical; settings: 10 μM
T35 construct: Panlabs (SafetyScreen44 panel)
T35 sequence (P23219 24-599): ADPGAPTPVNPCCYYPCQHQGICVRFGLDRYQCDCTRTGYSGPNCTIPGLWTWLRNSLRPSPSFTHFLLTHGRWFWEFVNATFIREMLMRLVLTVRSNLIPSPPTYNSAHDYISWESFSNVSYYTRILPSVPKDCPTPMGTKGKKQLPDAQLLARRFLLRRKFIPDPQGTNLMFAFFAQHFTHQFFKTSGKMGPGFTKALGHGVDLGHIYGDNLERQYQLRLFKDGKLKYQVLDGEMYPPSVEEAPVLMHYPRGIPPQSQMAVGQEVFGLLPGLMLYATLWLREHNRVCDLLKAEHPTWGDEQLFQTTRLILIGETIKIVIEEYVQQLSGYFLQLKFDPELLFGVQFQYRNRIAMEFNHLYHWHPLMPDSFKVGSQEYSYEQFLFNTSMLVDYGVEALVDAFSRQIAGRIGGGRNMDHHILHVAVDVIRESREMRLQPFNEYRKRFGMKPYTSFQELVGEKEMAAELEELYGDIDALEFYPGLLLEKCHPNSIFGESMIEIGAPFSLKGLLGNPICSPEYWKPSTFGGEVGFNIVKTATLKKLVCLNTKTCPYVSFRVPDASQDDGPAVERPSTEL
Method: as §1

COX-2 = target: T36, COX-2 (Homo sapiens, UniProt P35354); assay: SafetyScreen44 (Panlabs) panel; type: biochemical; settings: 10 μM
T36 construct: Panlabs (SafetyScreen44 panel)
Method: as §1

5-HT2B = 5-HT2B (Homo sapiens, UniProt P41595); assay: IP1 agonist functional assay; type: cell-based
5-HT2B, sequence (P41595 whole entry): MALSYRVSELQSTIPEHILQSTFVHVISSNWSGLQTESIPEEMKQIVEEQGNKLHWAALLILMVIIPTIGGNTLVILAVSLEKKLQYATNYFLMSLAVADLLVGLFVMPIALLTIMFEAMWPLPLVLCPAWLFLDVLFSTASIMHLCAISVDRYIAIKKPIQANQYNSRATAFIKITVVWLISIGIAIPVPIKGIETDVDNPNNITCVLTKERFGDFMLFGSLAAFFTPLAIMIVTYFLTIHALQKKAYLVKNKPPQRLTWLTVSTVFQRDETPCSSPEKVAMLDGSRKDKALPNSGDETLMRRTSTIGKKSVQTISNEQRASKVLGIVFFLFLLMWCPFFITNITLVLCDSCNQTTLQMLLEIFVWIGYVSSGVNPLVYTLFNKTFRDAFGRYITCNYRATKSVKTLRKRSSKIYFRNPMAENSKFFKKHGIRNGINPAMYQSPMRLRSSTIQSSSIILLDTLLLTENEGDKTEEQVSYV

[9] = Head twitch response assay; type: in vivo, Mice (C57bl/6J); settings: mice, 1, 3, 10, and 30 mg/kg s.c., vs positive control DOI
Method: FIG. 2. […] N=5 mice in each cohort. […] Drugs were administered s.c.
Mice (C57bl/6J, 8-15 weeks, 26-33 g) were weighed and moved to the testing room 30 minutes prior to experimentation. Mice were administered the experimental compound at a selected dose s.c. and then immediately moved to a new cage. Before beginning the test, mice were allowed to remain in this cage for a set amount of time ranging 0-10 min based on the compound. The head twitch assay was performed by a trained observer watching the mouse for a 10 min duration and recording the total number of head twitches observed.
DOI was tested at the doses of 1, 3, 10 and 30 mg/kg (s.c., 5 mice per dose) and testing began immediately after administration of the compound. Ariadne (32), (29) and (38) were tested at the doses of 1, 3, 10, and 30 mg/kg (s.c., 5 mice per dose) and there was a 10 min interval between treatment and testing.

[10] = target: T37, Serotonin (5-Hydroxytryptamine) 5-HT2B (Homo sapiens, UniProt P41595); assay: SafetyScreen44 (Panlabs) panel, replacement of standard ligand; type: binding; settings: hum
T37 construct: Panlabs (SafetyScreen44 panel)
T37 sequence (P41595 whole entry): as above

CCC(N)Cc1cc(OC)c(C)cc1OC (stereo not shown) [Ariadne (32), 1-(2,5-dimethoxy-4-methylphenyl)butan-2-amine]
% stimulation (Muscarinic M3): < 50%
% stimulation [1]: < 50%
% stimulation [2]: < 50%
% stimulation [3]: < 50%
% stimulation (KOP): < 50%
% stimulation (Vasopressin V1A): < 50%
% stimulation (Histamine H2): < 50%
% stimulation (Endothelin ETA): < 50%
% stimulation (Dopamine D1): < 50%
% stimulation [4]: < 50%
% stimulation (5-HT3): < 50%
% stimulation (MOP): < 50%
% stimulation (CB2): < 50%
% stimulation (Adrenergic β1): < 50%
% stimulation [5]: < 50%
% stimulation (SERT): < 50%
% stimulation (Potassium Channel [KA]): < 50%
% stimulation (Adrenergic α1A): < 50%
% stimulation (Adrenergic α2A): < 50%
% stimulation (Adrenergic β2): < 50%
% stimulation (DAT): < 50%
% stimulation (Androgen (Testosterone)): < 50%
% stimulation (5-HT1B): < 50%
% stimulation (Glucocorticoid): < 50%
% stimulation (Histamine H1): < 50%
% stimulation (Glutamate-NMDA (Agonism)): < 50%
% stimulation (Potassium Channel hERG): < 50%
% stimulation (Muscarinic M1): < 50%
% stimulation (Na-channel site 2): < 50%
% stimulation (Dopamine D2S): < 50%
% stimulation (Adenosine A2A): < 50%
% stimulation (NET): < 50%
% stimulation (Muscarinic M2): < 50%
% stimulation (DOP): < 50%
% stimulation (CB1): < 50%
Selectivity (EC50 2B ÷ EC50 2A) (5-HT2A): 25x
antidepressant-like effects (immobility time) (Forced swim test): antidepressant-like effects
inhibition at 10 µM [6]: 72%
hallucinogenic effect [7]: no hallucinogenic effect
% stimulation [8]: < 50%
% stimulation (Acetylcholinesterase): < 50%
% stimulation (PDE4D2): < 50%
% stimulation (MAO-A): < 50%
% stimulation (PDE3A): < 50%
% stimulation (COX-1): < 50%
% stimulation (COX-2): < 50%
EC50 (5-HT2B): > 32 µM
psychedelic activity (number of head twitches in a 10-min period) [9]: lower psychedelic activity
inhibition at 10 µM [10]: 72%
